# Results from patent publication US20120115867A1, “NEW CLASS OF HISTONE DEACETYLASE INHIBITORS” (DAC S.R.L., priority 2004, published 2012).
# Tested on: HDAC (nuclear fraction of Hela cells)
# Assay: Assay of enzyme inhibition of HDAC (BIOMOL Kit, fluorescence)
# Type: biochemical
# Details: 30× diluted nuclear fraction of Hela cells; substrate 200 μM; 15 min at RT
# Method: The in-vitro activity of HDAC inhibitors was assayed by means of a biochemical assay using a BIOMOL Kit, according to the instructions from the manufacturer (Biomolecular Research Laborator). Briefly, 15 μl of 30× diluted nuclear fraction of Hela cells, was diluted to 50 μl with the assay buffer containing the HDAC inhibitor and the substrate (lysine with acetylated amino on the side chain) at a concentration of 200 μM. The samples were incubated for 15 min at RT and then exposed to a developer (10 min at RT). In this last step a fluorophore was produced, whose fluorescence was measured using an excitation wavelength of 355 nm and an emission at 460 nm. The IC50 is calculated using GraphPad Software.
# The reference HDAC inhibitors marked with (*) are those disclosed in the patent application WO2006/037761.
row,Compound,IC50 [µM]
1,"O=C(/C=C/c1ccc(/C=C/C(=O)c2ccc(N3CCOCC3)cc2)cc1)NO [Ref (*) 41, reference compound]",1.36
2,"O=C(/C=C/c1ccc(/C=C/C(=O)c2ccc(N3CCOCC3)cc2)c(F)c1)NO [Ref (*) 29, reference compound]",2.84
3,"O=C(/C=C/c1cccc(/C=C/C(=O)c2ccccc2Cl)c1)NO [Ref (*)MC1670, reference compound]",0.389
4,"O=C(/C=C/c1cccc(/C=C/C(=O)c2cccc(Cl)c2)c1)NO [Ref (*)MC1672, reference compound]",1.46
5,"O=C(/C=C/c1cccc(/C=C/C(=O)c2cccc(F)c2)c1)NO [Ref (*)MC1653, reference compound]",1.37

# The next molecules have a lower IC50 than those just listed; values first:
row,IC50 [µM],Compound
1,0.0733,"COc1cc(C(=O)/C=C/c2ccc(/C=C/C(=O)NO)cc2)ccc1CN1CCOCC1 [Ref (*) 48, reference compound]"
2,0.13,"O=C(/C=C/c1cccc(/C=C/C(=O)c2ccccc2F)c1)NO [Ref (*)MC1661, reference compound]"
3,0.029,"CN1CCN(c2cc(Cl)cc(C(=O)/C=C/c3cccc(/C=C/C(=O)NO)n3)c2)CC1 [Example 11, (E)-3-(6-{(E)-3-[3-Chloro-5-(4-methyl-piperazin-1-yl)-phenyl]-3-oxo-propenyl}-pyridin-2-yl)-N-hydroxy-acrylamide]"
